Laboratory results reported in patent US12440476B2, “Agents that target telomerase reverse transcriptase (TERT) for treating cancer and sensitizing cancer cells to genotoxic therapy” (Northwestern University, priority 2022, dated 2025).

Columns and labels:
MCF7 cells [1] = assay: Clonogenic survival after irradiation (radiosensitivity); format: cell-based, human; details: NU-1 0.5 μM
Method: (§1) To assess radiosensitivity, MCF7, Saos-2, or CT26 cells were seeded in 6-well plates at 100 cells per well in triplicate, allowed to attach overnight and treated with DMSO or TERT inhibitors at subtoxic concentrations for 1 h prior to IR. MCF7 cells were treated with 0.5 μM NU-1, 10 μM BIBR 1532, or 1 μM MST-312, Saos-2 cells with 1 μM NU-1 or 20 μM BIBR 1532 and CT26 cells with 1 μM NU-1, 20 μM BIBR 1532 or 2 μM MST-312. Doses of 0, 1, 2, 3, 4, or 5 Gy were applied using a GammaCell ^60Co γ-ray source (Nordion) at a dose rate of 7.09 cGy/sec. After that MCF7 and Saos-2 cells were cultured for 3 weeks and CT26 for 2 weeks, then fixed and stained with crystal violet. Colonies of at least 50 cells were counted. Data from three independent biological replicates were acquired. The surviving fraction (SF) was calculated using the following formula: […]

Saos-2 cells = assay: as above; format: cell-based, human; details: NU-1 1 μM
Method: as §1

CT26 tumors = assay: Subcutaneous CT26 tumor growth, IR with or without NU-1, immunodeficient host; format: in vivo; details: NSG mice
Method: For tumor inoculation, 7-9 week BALB/c mice or NSG mice were subcutaneously injected in the flank with 0.5×10^6 CT26 cells in 100 μL PBS. On Day 9 (tumor average volume ˜30 mm^3), the tumor bearing BALB/c mice were randomly divided into 4 groups of 8, while the NSG mice were randomly divided into 2 groups of 5-6. For NU-1 treatment, 10 mg/kg of NU-1 in 100 μL PBS was injected intraperitoneally once on each of the 2 days before, the day of and 2 days after irradiation. Mouse weight was measured before treatment. Tumor irradiation was conducted on Day 11 using a RadSource RS-2000 X-Ray generator operating at 160 kV and 25 mA at 10 Gy, calibrated by NIST traceable dosimetry. From Day 7 after tumor inoculation, tumors were measured by calipers every 2-3 days and volume calculated using the formula: Tumor volume (mm^3)=length (mm)×width (mm)×width (mm)[…]. On Day 18 after tumor inoculation, tumors from 3 mice under each treatment condition were collected for histology analysis. The rest of the mice were continuously maintained and recorded until at least Day 28 or reaching the humane endpoint for tumor volume. No animals that formed tumors after injection with CT26 cells were excluded from any studies reported here.
CT26 tumors were collected 5 days after treatment (Day 18 after tumor inoculation) and fixed in 10% neutral formalin for 24 h. […]

CT26 cells = assay: Senescence-associated beta-galactosidase (SA-β-Gal) assay; format: cell-based, mouse; details: non-toxic doses, 10 Gy, 5 days
Method: MCF7, Saos-2, or CT26 cells were seeded at 3×10^4 per well in 6-well plates and allowed to attach to plate overnight. For TERT inhibition, MCF7 cells were treated with DMSO vehicle, NU-2 (0.5 μM), NU-1 (0.5 μM), chrolactomycin (0.5 μM), BIBR 1532 (10 μM), or MST-312 (1 μM) for 1 h prior to IR, Saos-2 cells were treated with DMSO vehicle, NU-2 (1 μM), NU-1 (1 μM), chrolactomycin (1 μM), BIBR 1532 (20 μM), or MST-312 (1 μM) for 1 h prior to IR, and CT26 cells were treated with MSO vehicle, NU-2 (1 μM), NU-1 (1 μM), chrolactomycin (1 μM), BIBR 1532 (20 μM), or MST-312 (2 μM) for 1 h prior to IR. Then MCF7 and Saos-2 cells were irradiated with 0 or 6 Gy and CT26 cells with 0 or 10 Gy. After IR, MCF7 and Saos-2 cells were continuously cultured for 7 days and CT26 for 5 days, then fixed in 2% PFA and stained with staining buffer (1 mg/ml X-Gal (Golden Bio), 40 mM citric acid/sodium phosphate, 150 mM NaCl, 2 mM MgCl2, 3.3 mM K3[Fe(CN)6], 3.3 mM K4[Fe(CN)6], pH=6) for 16 h at 37° C., then washed with warm PBS three times and imaged in PBS within a week. Images were captured on a Zeiss Axiovert 200M microscope with a 20× Plan-NeoFluar objective and Axiocam digital camera. SA-β-Gal-positive and -negative cells were counted in more than 5 fields, yielding an average percentage indicated on each SA-β-Gal image as mean±SD. Three replicates were performed.
To examine the roles for STING, CT26 cells were seeded at 2×10^4 per well in 12-well plates and allowed to attach overnight. STING inhibitor C178 (0 or 4 μM) was added, followed by the addition of DMSO vehicle, NU-1 (1 μM), MST-312 (2 μM) or chrolactomycin (1 μM) for 1 h prior to 0 or 10 Gy. CT26 cells were cultured for 5 days, surviving cells were washed twice in PBS and cultured in fresh immune cell culture medium overnight. The CT26 cells were then cocultured with BMDCs for 12-16 h at a 1:2 ratio, and BMDCs were collected and analyzed after coculturing, as described above.

MCF7 cells [2] = details: cited from earlier work

## C=C1C(=O)[C@](C)(C(=O)OC)[C@H](CCc2cn(Cc3ccc(F)cc3F)nn2)O[C@@H]1C [NU-1]
MCF7 cells [1]; MCF7, BIBR 10 μM, MST 1 μM, IR 0-5 Gy
  Radiosensitization in clonogenic survival assay: strongest effects
MCF7 cells [1]; MCF7 cells, BIBR 1532 10 μM, MST-312 1 μM for 1 h prior to IR, 2 Gy
  Mean SF2 (surviving fraction at 2 Gy): 0.116
Saos-2 cells; Saos-2 (telomerase negative), BIBR 20 μM
  Radiosensitization in clonogenic survival assay: Neither NU-1 nor BIBR displayed radiosensitization
Saos-2 cells; Saos-2 cells, BIBR 1532 20 μM for 1 h prior to IR, 2 Gy
  Mean SF2 (surviving fraction at 2 Gy): 0.583
CT26 tumors; IR + NU-1
  Tumor elimination: no longer sufficient to eliminate tumors
CT26 tumors; IR + NU-1 vs IR alone
  Tumor growth delay: enhanced growth delay
CT26 cells
  Senescence induction by IR: enhanced senescence induction by IR
MCF7 cells [2]
  LD50: 21 µM
